Data reported in article PMC3500388 (Organic & biomolecular chemistry, 2012).
pEC50, pIC50: −log10 of the molar value. Where “and” joins values, the source holds several entries; their conditions need not be identical. Equal values may be shown once. Each block holds one compound with its values, some of them ahead of it.

Tests used:
[1] = target: full-length human ERβ (Homo sapiens, UniProt Q92731); test: Luciferase reporter gene assay in HepG2 cells, ERβ, antagonist mode; format: cell-based
[2] = target: T1, full-length human ERα (Homo sapiens, UniProt P03372); test: Luciferase reporter gene assay in HepG2 cells, ERα, agonist mode; details: for Agonist mode ERα Eff (%E2) / ERα agonist activity / intrinsic activity, in words: HepG2 cells; for Agonist mode ERα Eff (%E2): mean ± s.e.m. as percentage of 10^−7 M E2
T1 sequence (P03372 1-595): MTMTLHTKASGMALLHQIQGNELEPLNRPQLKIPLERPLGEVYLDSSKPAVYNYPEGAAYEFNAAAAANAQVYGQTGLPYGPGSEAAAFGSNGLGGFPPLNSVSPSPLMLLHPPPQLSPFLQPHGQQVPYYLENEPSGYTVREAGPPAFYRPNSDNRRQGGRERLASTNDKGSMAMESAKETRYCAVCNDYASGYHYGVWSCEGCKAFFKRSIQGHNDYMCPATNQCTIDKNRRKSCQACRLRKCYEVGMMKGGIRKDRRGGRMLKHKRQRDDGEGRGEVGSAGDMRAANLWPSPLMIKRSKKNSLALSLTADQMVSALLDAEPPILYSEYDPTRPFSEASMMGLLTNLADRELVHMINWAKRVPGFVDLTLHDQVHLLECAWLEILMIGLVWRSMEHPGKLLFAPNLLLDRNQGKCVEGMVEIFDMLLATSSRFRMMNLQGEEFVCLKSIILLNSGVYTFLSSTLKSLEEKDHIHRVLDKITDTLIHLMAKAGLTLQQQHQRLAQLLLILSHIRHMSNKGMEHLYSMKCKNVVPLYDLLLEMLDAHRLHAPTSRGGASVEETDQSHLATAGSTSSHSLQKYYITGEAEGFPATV

[3] = target: T1, full-length human ERα; test: Luciferase reporter gene assay in HepG2 cells, ERα, antagonist mode; format: cell-based
[4] = target: T2, purified full-length human ERα (Homo sapiens, UniProt P03372); test: Competitive radiometric binding assay, ERα; details: estradiol = 100%; 2 nM [3H]estradiol tracer, 18–24 h at 0 °C
T2 sequence (P03372 1-595): T1 sequence (P03372 1-595)

[5] = target: purified full-length human ERβ (Homo sapiens, UniProt Q92731); test: Competitive radiometric binding assay, ERβ; details: estradiol = 100%; 2 nM [3H]estradiol tracer, 18–24 h at 0 °C
Chain of purified full-length human ERβ (Q92731 whole entry): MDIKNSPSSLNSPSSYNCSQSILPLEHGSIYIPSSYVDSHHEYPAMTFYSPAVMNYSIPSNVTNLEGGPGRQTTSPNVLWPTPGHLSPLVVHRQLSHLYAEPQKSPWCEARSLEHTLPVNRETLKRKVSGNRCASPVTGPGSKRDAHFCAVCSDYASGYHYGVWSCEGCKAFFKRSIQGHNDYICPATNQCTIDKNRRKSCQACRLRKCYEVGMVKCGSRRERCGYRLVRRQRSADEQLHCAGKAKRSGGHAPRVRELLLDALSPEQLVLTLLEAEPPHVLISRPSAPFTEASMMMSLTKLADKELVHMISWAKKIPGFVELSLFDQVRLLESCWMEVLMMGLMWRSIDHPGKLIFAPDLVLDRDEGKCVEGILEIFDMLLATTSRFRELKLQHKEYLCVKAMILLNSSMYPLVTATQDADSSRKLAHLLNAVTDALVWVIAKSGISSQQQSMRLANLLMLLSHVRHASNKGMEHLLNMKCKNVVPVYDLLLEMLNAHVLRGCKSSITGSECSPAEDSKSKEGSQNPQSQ

[6] = tested on: HEC-1 cells; details: cited from earlier work

Chain of full-length human ERβ (Q92731 whole entry): as above

ERα agonist activity / intrinsic activity, in words [2]: low efficacy compound | Agonist mode ERα Eff (%E2) [2]: 11 ± 1 %E2
SMILES: CCN(c1ccccc1)S(=O)(=O)C1CC2OC1C(c1ccc(O)cc1)=C2c1ccc(O)cc1 (stereo not shown) [Compound 11i, N-Ethyl-5,6-bis(4-hydroxyphenyl)-N-phenyl-7-oxabicyclo-[2.2.1]hept-5-ene-2-sulfonamide]

ERβ profile / intrinsic activity, in words ([1]; HepG2 cells): as low as that for fulvestrant | ERα agonist activity / intrinsic activity, in words [2]: as low as that for fulvestrant | Agonist mode ERα Eff (%E2) [2]: 3 ± 1 %E2
SMILES: CCN(c1ccc(OC)cc1)S(=O)(=O)C1CC2OC1C(c1ccc(O)cc1)=C2c1ccc(O)cc1 (stereo not shown) [Compound 11j, N-Ethyl-5,6-bis(4-hydroxyphenyl)-N-(4-methoxyphenyl)-7-oxabicyclo[2.2.1]hept-5-ene-2-sulfonamide]

Agonist mode ERα Eff (%E2) [2]: 13 ± 1 %E2
SMILES: CCN(c1ccccc1Cl)S(=O)(=O)C1CC2OC1C(c1ccc(O)cc1)=C2c1ccc(O)cc1 (stereo not shown) [Compound 11k, N-(2-Chlorophenyl)-N-ethyl-5,6-bis(4-hydroxyphenyl)-7-oxabicyclo[2.2.1]hept-5-ene-2-sulfonamide]

Agonist mode ERα Eff (%E2) [2]: 1 ± 1 %E2
SMILES: CCN(c1ccc(Cl)cc1)S(=O)(=O)C1CC2OC1C(c1ccc(O)cc1)=C2c1ccc(O)cc1 (stereo not shown) [Compound 11l, N-(4-Chlorophenyl)-N-ethyl-5,6-bis(4-hydroxyphenyl)-7-oxabicyclo[2.2.1]hept-5-ene-2-sulfonamide]

Agonist mode ERα Eff (%E2) [2]: 3 ± 3 %E2
SMILES: O=S(=O)(C1CC2OC1C(c1ccc(O)cc1)=C2c1ccc(O)cc1)N(CC(F)(F)F)c1ccc(Cl)cc1 (stereo not shown) [Compound 11o, N-(4-Chlorophenyl)-5,6-bis(4-hydroxyphenyl)-N-(2,2,2-trifluoroethyl)-7-oxabicyclo[2.2.1]hept-5-ene-2-sulfonamide]

ERβ profile / intrinsic activity, in words ([1]; HepG2 cells): full antagonist | Agonist mode ERα Eff (%E2) [2]: 1 ± 1 %E2 | ERα antagonist profile, in words [3]: full antagonist
SMILES: C[C@]12CC[C@@H]3c4ccc(O)cc4C[C@@H](CCCCCCCCC[S+]([O-])CCCC(F)(F)C(F)(F)F)[C@H]3[C@@H]1CC[C@@H]2O (stereo partly shown) [Fulvestrant, fulvestrant, reference compound]

Further lines, the compound ahead of its results:

SMILES: CC/C(=C(\c1ccc(O)cc1)c1ccc(OCCN(C)C)cc1)c1ccccc1 [4-OH TAM, 4-OH tamoxifen, reference compound]
Antagonist mode ERβ Eff (%E2) [1]: −20 ± 2 %E2

SMILES: O=S(=O)(Nc1ccccc1)C1CC2OC1C(c1ccc(O)cc1)=C2c1ccc(O)cc1 (stereo not shown) [Compound 11a, 5,6-Bis(4-hydroxyphenyl)-N-phenyl-7-oxabicyclo[2.2.1]hept-5-ene-2-sulfonamide]
pEC50 [2]: 7.00 | Agonist mode ERα Eff (%E2) [2]: 78 ± 1 %E2

SMILES: O=S(=O)(Nc1ccccc1Cl)C1CC2OC1C(c1ccc(O)cc1)=C2c1ccc(O)cc1 (stereo not shown) [Compound 11c, N-(2-Chlorophenyl)-5,6-bis(4-hydroxyphenyl)-7-oxabicyclo-[2.2.1]hept-5-ene-2-sulfonamide]
pEC50 [2]: 6.70 | Agonist mode ERα Eff (%E2) [2]: 81 ± 4 %E2

SMILES: O=S(=O)(Nc1ccc(Cl)cc1)C1CC2OC1C(c1ccc(O)cc1)=C2c1ccc(O)cc1 (stereo not shown) [Compound 11d, N-(4-Chlorophenyl)-5,6-bis(4-hydroxyphenyl)-7-oxabicyclo-[2.2.1]hept-5-ene-2-sulfonamide]
Agonist mode ERα Eff (%E2) [2]: 42 ± 3 %E2

SMILES: CN(c1ccccc1)S(=O)(=O)C1CC2OC1C(c1ccc(O)cc1)=C2c1ccc(O)cc1 (stereo not shown) [Compound 11e, 5,6-Bis(4-hydroxyphenyl)-N-methyl-N-phenyl-7-oxabicyclo-[2.2.1]hept-5-ene-2-sulfonamide]
pIC50 ([1]; read-out: Antagonist mode ERβ IC50, HepG2 cells, in the presence of 10^−8 M E2): 8.00 | Agonist mode ERα Eff (%E2) [2]: 31 ± 3 %E2 | pIC50 ([3]; read-out: Antagonist mode ERα IC50, in the presence of 10^−8 M E2): 6.13

SMILES: CN(c1ccccc1Cl)S(=O)(=O)C1CC2OC1C(c1ccc(O)cc1)=C2c1ccc(O)cc1 (stereo not shown) [Compound 11g, N-(2-Chlorophenyl)-5,6-bis(4-hydroxyphenyl)-N-methyl-7-oxabicyclo[2.2.1]hept-5-ene-2-sulfonamide]
pEC50 [2]: 8.10 | Agonist mode ERα Eff (%E2) [2]: 33 ± 1 %E2 | relative binding affinity (RBA) for ERα [4]: 7.17% and 7.2% | relative binding affinity (RBA) for ERβ [5]: 1.59% and 1.6%

SMILES: O=S(=O)(Oc1ccccc1)[C@H]1C[C@H]2O[C@@H]1C(c1ccc(O)cc1)=C2c1ccc(O)cc1 [OBHS, exo-5,6-bis-(4-hydroxyphenyl)-7-oxabicyclo[2.2.1]hept-5-ene-2-sulfonic acid phenyl ester]
profile in HEC-1 cells, in words [6]: full antagonist
